In patent publication US10954253B2, “1,2-dihydro-3H-pyrazolo[3,4-d]pyrimidin-3-one derivative as Wee1 inhibitor” (SHIJIAZHUANG SAGACITY NEW DRUG DEVELOPMENT CO., LTD., priority 2017, dated 2021):

molecular target: Wee1 (Homo sapiens (Human), UniProt P30291); assay: In vitro enzymatic inhibitory activity (33P-ATP filter-binding kinase assay, MBP substrate); format: biochemical; details: Wee-1 150 nM, MBP 20 μM
Method: The compounds of the present invention for experimental use were all self-prepared, and their chemical names and structural formulas are shown in the preparation embodiments of the respective compounds. The experimental tests were carried out in Reaction Biology Corporation, USA, and the experimental results were provided by the company. Basic reaction buffer: 20 mM hydroxyethylpiperazine ethanesulfuric acid (pH 7.5), 10 mM magnesium chloride, 1 mM EGTA, 0.02% Brij35, 0.02 mg/mL bovine serum albumin, 0.1 mM Na3VO4, 2 mM DTT, 1% DMSO Enzyme: Wee-1 concentration is 150 nM Matrix: MBP concentration is 20 μM The tested compound was formulated into a 5 mM solution with 100% DMSO, and a 10 points 3-fold gradient dilution was performed with DMSO through an automated pipetting station epMotion 5070. 1. Fresh matrix configuration reaction buffer was prepared; 2. The Wee-1 was added into the matrix solution and shaked gently; 3. DMSO solution of the compound were added into the kinase reaction mixture using an acoustic technique (Echo 550; nanoliter range) and incubated for 20 minutes at room temperature; 4. ^33P-ATP (specific activity, 10 μCi/μL) was added into the reaction mixture to stimulate the reaction; 5. Incubated for 2 hours at room temperature; 6. Kinase activity was detected by filter-binding method.

Wee1, sequence (P30291 whole entry): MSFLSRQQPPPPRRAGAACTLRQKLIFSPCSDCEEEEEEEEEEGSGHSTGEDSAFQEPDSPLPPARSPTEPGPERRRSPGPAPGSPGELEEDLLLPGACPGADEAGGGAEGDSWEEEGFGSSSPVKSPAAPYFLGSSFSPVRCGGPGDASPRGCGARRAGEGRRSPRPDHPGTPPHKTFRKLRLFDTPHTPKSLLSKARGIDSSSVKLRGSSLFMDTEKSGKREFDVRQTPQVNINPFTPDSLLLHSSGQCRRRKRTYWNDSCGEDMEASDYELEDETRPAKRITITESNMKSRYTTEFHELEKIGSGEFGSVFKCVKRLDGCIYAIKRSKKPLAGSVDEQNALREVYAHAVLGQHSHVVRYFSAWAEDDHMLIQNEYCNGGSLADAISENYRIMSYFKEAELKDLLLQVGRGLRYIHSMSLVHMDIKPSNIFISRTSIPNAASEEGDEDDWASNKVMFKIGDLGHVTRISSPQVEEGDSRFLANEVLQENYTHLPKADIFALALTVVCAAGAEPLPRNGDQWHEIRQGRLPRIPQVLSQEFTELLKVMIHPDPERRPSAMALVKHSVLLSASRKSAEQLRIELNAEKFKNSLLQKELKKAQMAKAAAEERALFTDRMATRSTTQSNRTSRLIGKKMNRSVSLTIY

IC50 [nM] | Compound
8.3 | C=CCn1c(=O)c2cnc(Nc3ccc(N4CCC5(CCN(CC#N)CC5)CC4)cc3)nc2n1-c1cccc(C(C)(C)O)n1 [Compound 63, 2-(9-(4((2-allyl-1(6-(2-hydroxypropan-2-yl)pyridin-2-yl)-3-oxo-2,3-dihydro-1H-pyrazolo[3,4-d]pyrimidin-6-yl)amino)phenyl)-3,9-diazaspiro[5.5]undecan-3-yl)acetonitrile]
9.9 | C=CCn1c(=O)c2cnc(Nc3ccc(N4CCC5(CCN(CCOC)CC5)CC4)cc3)nc2n1-c1cccc(C(C)(C)O)n1 [Compound 64, 2-allyl-1-(6-(2-hydroxypropan-2-yl)pyridin-2-yl)-6-((4-(9-(2-methoxylethyl)-3,9-diazaspiro[5.5]undecan-3-yl)phenyl)amino)-1H-pyrazolo[3,4-d]pyrimidin-3(2H)-one]
41.6 | C=CCn1c(=O)c2cnc(Nc3ccc(N4CCC5(CCN(C)CC5)CC4)cc3)nc2n1-c1cccc(C2(F)CC(F)(F)C2)n1 [Compound 65, 2-allyl-6((4-(9-methyl-3,9-diazaspiro[5.5]undecan-3-yl)phenyl)amino)-1-(6-(1,3,3-trifluorocyclobutyl)pyridin-2-yl)-1H-pyrazolo[3,4-d]pyrimidin-3(2H)-one]
15 | C=CCn1c(=O)c2cnc(Nc3ccc(N4CCC5(CCN(C)CC5)CC4)cc3)nc2n1-c1cccc(C2(O)CC(F)(F)C2)n1 [Compound 66, 2-allyl-1-(6-(3,3-difluoro-1-hydroxycyclobutyl)pyridin-2-yl)-6-((4-(9-methyl-3,9-diazaspiro[5.5]undecan-3-yl)phenyl)amino)-1H-pyrazolo[3,4-d]pyrimidin-3(2H)-one]
12.8 | C=CCn1c(=O)c2cnc(Nc3ccc(N4CCC5(CCN(C)CC5)CC4)cc3)nc2n1-c1cccc(C(C)C)n1 [Compound 67]
30.4 | C=CCn1c(=O)c2cnc(Nc3ccc(N4CCC5(CCN(C)CC5)CC4)cc3)nc2n1-c1cccc(C2(C)CC2)n1 [Compound 68, 2-allyl-6-((4-(9-methyl-3,9-diazaspiro[5.5]undecan-3-yl)phenyl)amino)-1-(6-(1-methylcyclopropyl)pyridin-2-yl)-1H-pyrazolo[3,4-d]pyrimidin-3(2H)-one]
5.7 | C=CCn1c(=O)c2cnc(Nc3ccc(N4CCC5(CC4)CCN(C4COC4)CC5)cc3)nc2n1-c1cccc(C(C)(C)O)n1 [Compound 69]
20.3 | C=CCn1c(=O)c2cnc(Nc3ccc(N4CCC5(CCN(C(=O)OC)CC5)CC4)cc3)nc2n1-c1cccc(C(=O)N(C)C)n1 [Compound 70, methyl-9-(4-((2-allyl-1-(6-(dimethylaminoformyl)pyridin-2-yl)-3-oxo-2,3-dihydro-1H-pyrazolo[3,4-d]pyrimidin-6-yl)amino)phenyl)-3,9-diazaspiro[5.5]undecan-3-carboxylate]
15.7 | C=CCn1c(=O)c2cnc(Nc3ccc(N4CCC5(CCN(C(=O)OC)CC5)CC4)cc3)nc2n1-c1cccc(C2(O)COC2)n1 [Compound 71, methyl-9-(4-((2-allyl-1-(6-(3-hydroxyoxetan-3-yl)pyridin-2-yl)-3-oxo-2,3-dihydro-1H-pyrazolo[3,4-d]pyrimidin-6-yl)amino)phenyl)-3,9-diazaspiro[5.5]undecan-3-carboxylate]
8.2 | C=CCn1c(=O)c2cnc(Nc3ccc(N4CCC5(CCN(C)CC5)CC4)cc3)nc2n1-c1cccc(N2CC(F)(F)C2)n1 [Compound 72]
5.3 | C=CCn1c(=O)c2cnc(Nc3ccc(N4CCC5(CCN(C)CC5)CC4)cc3)nc2n1-c1cccc(C2(OC)COC2)n1 [Compound 73, 2-allyl-1-(6-(3-methoxyoxetan-3-yl)pyridin-2-yl)-6-((4-(9-methyl-3,9-diazaspiro[5.5]undecan-3-yl)phenyl)amino)-1H-pyrazolo[3,4-d]pyrimidin-3(2H)-one]
13 | C=CCn1c(=O)c2cnc(Nc3ccc(N4CCC5(CCNCC5)CC4)cc3)nc2n1-c1cccc(C(C)(C)O)n1 [Compound 76, 6-((4-(-3,9-diazaspiro[5.5]undecan-3-yl)phenyl)amino)-2-allyl-1-(6-(2-hydroxypropan-2-yl)pyridin-2-yl)-1H-pyrazolo[3,4-d]pyrimidin-3(2H)-one]
9 | C=CCn1c(=O)c2cnc(Nc3ccc(N4CCC5(CCNCC5)CC4)cc3)nc2n1-c1cccc(C2(F)COC2)n1 [Compound 77, 6-((4-(-3,9-diazaspiro[5.5]undecan-3-yl)phenyl)amino)-2-allyl-1-(6-(3-fluoro-oxetan-3-yl)pyridin-2-yl)-1H-pyrazolo[3,4-d]pyrimidin-3(2H)-one]
32 | C=CCn1c(=O)c2cnc(Nc3ccc(N4CCC5(CCN(C)CC5)CC4)cc3)nc2n1-c1cccc(C(C)(O)C(F)F)n1 (stereo not drawn) [Compound 78]
43 | C=C(F)Cn1c(=O)c2cnc(Nc3ccc(N4CCC5(CCN(C)CC5)CC4)cc3)nc2n1-c1cccc(C(C)(C)O)n1 [Compound 79, 2-(2-fluoroallyl)-1-(6-(2-hydroxypropan-2-yl)pyridin-2-yl)-6-((4-(9-methyl-3,9-diazaspiro[5.5]undecan-3-yl)phenyl)amino)-1H-pyrazolo[3,4-d]pyrimidin-3(2H)-one]
49 | C=CCn1c(=O)c2cnc(Nc3ccc(N4CCC5(CCN(C)CC5)CC4)cc3)nc2n1-c1ccc(F)c(C(C)(C)O)n1 [Compound 80, 2-allyl-1-(5-fluoro-6-(2-hydroxypropan-2-yl)pyridin-2-yl)-6-((4-(9-methyl-3,9-diazaspiro[5.5]undecan-3-yl)phenyl)amino)-1H-pyrazolo[3,4-d]pyrimidin-3(2H)-one]
67.4 | C=CCn1c(=O)c2cnc(Nc3ccc(N4CCC5(CCN(C)CC5)CC4)cc3)nc2n1-c1ccccc1 [Embodiment 1, 2-allyl-6-((4-(9-methyl-3,9-diazaspiro[5.5]undecan-3-yl)phenyl)amino)-1-phenyl-1H-pyrazolo[3,4-d]pyrimidin-3(2H)-one]
43.6 | C=CCn1c(=O)c2cnc(Nc3ccc(N4CCC5(CCNCC5)CC4)cc3)nc2n1-c1ccccc1 [Embodiment 2, 6-((4-(3,9-diazaspiro[5.5]undecan-3-yl)phenyl)amino)-2-allyl-1-phenyl-1H-pyrazolo[3,4-d]pyrimidin-3(2H)-one]
24.6 | C=CCn1c(=O)c2cnc(Nc3ccc(N4CCC5(CCN(C)CC5)CC4)cc3)nc2n1-c1ccccn1 [Embodiment 3, 2-allyl-6-((4-(9-methyl-3,9-diazaspiro[5.5]undecan-3-yl)phenyl)amino)-1-(pyridin-2-yl)-1H-pyrazolo[3,4-d]pyrimidin-3(2H)-one]

Compound | IC50 [nM]
C=CCn1c(=O)c2cnc(Nc3ccc(N4CCC5(CCN(C)CC5)CC4)cc3)nc2n1-c1cccc([C@@](C)(O)C(F)(F)F)n1 [Compound 74, (R)-2-allyl-6-((4-(9-methyl-3,9-diazaspiro[5.5]undecan-3-yl)phenyl)amino)-1-(6-(1,1,1-trifluoro-2-hydroxypropan-2-yl)pyridin-2-yl)-1H-pyrazolo[3,4-d]pyrimidin-3(2H)-one] | 13
C=CCn1c(=O)c2cnc(Nc3ccc(N4CCC5(CCN(C)CC5)CC4)cc3)nc2n1-c1cccc([C@](C)(O)C(F)(F)F)n1 [Compound 75, (S)-2-allyl-6-((4-(9-methyl-3,9-diazaspiro[5.5]undecan-3-yl)phenyl)amino)-1-(6-(1,1,1-trifluoro-2-hydroxypropan-2-yl)pyridin-2-yl)-1H-pyrazolo[3,4-d]pyrimidin-3(2H)-one] | 17
